Assay results reported in BindingDB's records for doi:10.1021/acs.jmedchem.9b00742 (Leiden University, 2019).

Columns and labels:
[1] = target: T1, C-C chemokine receptor type 2 (Homo sapiens, UniProt P41597); assay: Antagonist activity at CCR2b in human THP1 cells assessed as inhibition of human MCP1 induced calcium flux by fluo-4 dye based fluorescence assay
[2] = target: T2, C-C chemokine receptor type 5 (Homo sapiens, UniProt P51681); assay: Non-competitive insurmountable antagonist activity at human CCR5 expressed in human U2OS cell membranes assessed as pEC50 for CCL3-stimulated [35S]GTPgammaS binding at 100 nM preincubated for 30 mins followed by [35S]GTPgammaS addition and measured after 90 mins (Rvb = 8.42 +/- 0.06 No_unit)
[3] = target: T2, C-C chemokine receptor type 5; assay: Non-competitive insurmountable antagonist activity at human CCR5 expressed in human U2OS cell membranes assessed as EC50 for CCL3-stimulated [35S]GTPgammaS binding at 300 nM preincubated for 30 mins followed by [35S]GTPgammaS addition and measured after 90 mins (Rvb = 4 nM)
[4] = target: T1, C-C chemokine receptor type 2; assay: Non-competitive insurmountable antagonist activity at human CCR2 expressed in human U2OS cell membranes assessed as pEC50 for CCL2-stimulated [35S]GTPgammaS binding at 30 nM preincubated for 30 mins followed by [35S]GTPgammaS addition and measured after 90 mins (Rvb = 8.10 +/- 0.06 No_unit)
[5] = target: T2, C-C chemokine receptor type 5; assay: Non-competitive insurmountable antagonist activity at human CCR5 expressed in human U2OS cell membranes assessed as EC50 for CCL3-stimulated [35S]GTPgammaS binding at 100 nM preincubated for 30 mins followed by [35S]GTPgammaS addition and measured after 90 mins (Rvb = 4 nM)
[6] = target: T1, C-C chemokine receptor type 2; assay: Non-competitive insurmountable antagonist activity at human CCR2 expressed in human U2OS cell membranes assessed as pEC50 for CCL2-stimulated [35S]GTPgammaS binding at 10 nM preincubated for 30 mins followed by [35S]GTPgammaS addition and measured after 90 mins (Rvb = 8.10 +/- 0.06 No_unit)
[7] = target: T2, C-C chemokine receptor type 5; assay: Non-competitive insurmountable antagonist activity at human CCR5 expressed in human U2OS cell membranes assessed as EC50 for CCL3-stimulated [35S]GTPgammaS binding at 1000 nM preincubated for 30 mins followed by [35S]GTPgammaS addition and measured after 90 mins (Rvb = 4 nM)
[8] = target: T1, C-C chemokine receptor type 2; assay: Non-competitive insurmountable antagonist activity at human CCR2 expressed in human U2OS cell membranes assessed as pEC50 for CCL2-stimulated [35S]GTPgammaS binding at 100 nM preincubated for 30 mins followed by [35S]GTPgammaS addition and measured after 90 mins (Rvb = 8.10 +/- 0.06 No_unit)
[9] = target: T1, C-C chemokine receptor type 2; assay: Non-competitive insurmountable antagonist activity at human CCR2 expressed in human U2OS cell membranes assessed as EC50 for CCL2-stimulated [35S]GTPgammaS binding at 10 nM preincubated for 30 mins followed by [35S]GTPgammaS addition and measured after 90 mins (Rvb = 8 nM)
[10] = target: T2, C-C chemokine receptor type 5; assay: Non-competitive insurmountable antagonist activity at human CCR5 expressed in human U2OS cell membranes assessed as pEC50 for CCL3-stimulated [35S]GTPgammaS binding at 300 nM preincubated for 30 mins followed by [35S]GTPgammaS addition and measured after 90 mins (Rvb = 8.42 +/- 0.06 No_unit)
[11] = target: T2, C-C chemokine receptor type 5; assay: Non-competitive insurmountable antagonist activity at human CCR5 expressed in human U2OS cell membranes assessed as pEC50 for CCL3-stimulated [35S]GTPgammaS binding at 30 nM preincubated for 30 mins followed by [35S]GTPgammaS addition and measured after 90 mins (Rvb = 8.42 +/- 0.06 No_unit)
[12] = target: T1, C-C chemokine receptor type 2; assay: Non-competitive insurmountable antagonist activity at human CCR2 expressed in human U2OS cell membranes assessed as pEC50 for CCL2-stimulated [35S]GTPgammaS binding at 3 nM preincubated for 30 mins followed by [35S]GTPgammaS addition and measured after 90 mins (Rvb = 8.10 +/- 0.06 No_unit)
[13] = target: T1, C-C chemokine receptor type 2; assay: Non-competitive insurmountable antagonist activity at human CCR2 expressed in human U2OS cell membranes assessed as pEC50 for CCL2-stimulated [35S]GTPgammaS binding at 1 nM preincubated for 30 mins followed by [35S]GTPgammaS addition and measured after 90 mins (Rvb = 8.10 +/- 0.06 No_unit)
[14] = target: T1, C-C chemokine receptor type 2; assay: Non-competitive insurmountable antagonist activity at human CCR2 expressed in human U2OS cell membranes assessed as EC50 for CCL2-stimulated [35S]GTPgammaS binding at 3 nM preincubated for 30 mins followed by [35S]GTPgammaS addition and measured after 90 mins (Rvb = 8 nM)
[15] = target: T1, C-C chemokine receptor type 2; assay: Non-competitive insurmountable antagonist activity at human CCR2 expressed in human U2OS cell membranes assessed as EC50 for CCL2-stimulated [35S]GTPgammaS binding at 1 nM preincubated for 30 mins followed by [35S]GTPgammaS addition and measured after 90 mins (Rvb = 8 nM)
[16] = target: T1, C-C chemokine receptor type 2; assay: Displacement of [3H]-CCR2-RA-[R] from human CCR2 expressed in human U2OS cells incubated for 2 hrs by scintillation spectrometric method

T2 sequence (P51681 whole entry): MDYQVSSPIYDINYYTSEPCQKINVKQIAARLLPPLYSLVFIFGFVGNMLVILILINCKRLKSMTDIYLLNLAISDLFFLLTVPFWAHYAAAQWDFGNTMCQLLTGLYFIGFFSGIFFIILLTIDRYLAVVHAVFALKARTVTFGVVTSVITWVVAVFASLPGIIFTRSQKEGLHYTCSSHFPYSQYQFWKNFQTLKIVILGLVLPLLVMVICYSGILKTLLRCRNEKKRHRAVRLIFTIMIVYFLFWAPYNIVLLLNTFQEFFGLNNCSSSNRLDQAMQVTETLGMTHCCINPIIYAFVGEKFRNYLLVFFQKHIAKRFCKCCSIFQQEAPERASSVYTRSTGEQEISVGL
T1 sequence (P41597 whole entry): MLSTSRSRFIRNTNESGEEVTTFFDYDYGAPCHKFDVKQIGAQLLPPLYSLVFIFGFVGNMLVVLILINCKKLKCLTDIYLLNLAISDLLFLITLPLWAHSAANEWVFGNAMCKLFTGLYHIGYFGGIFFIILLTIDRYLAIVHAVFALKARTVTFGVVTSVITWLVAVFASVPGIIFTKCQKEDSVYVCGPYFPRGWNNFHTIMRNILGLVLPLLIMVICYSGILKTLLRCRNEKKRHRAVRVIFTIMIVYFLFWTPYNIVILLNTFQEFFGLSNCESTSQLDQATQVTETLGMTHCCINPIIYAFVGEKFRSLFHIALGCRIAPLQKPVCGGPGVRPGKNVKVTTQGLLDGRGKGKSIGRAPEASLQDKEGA

| Compound | EC50 [2] [nM] | EC50 [3] [nM] | EC50 [5] [nM] | EC50 [6] [nM] | EC50 [9] [nM] | EC50 [10] [nM] | Ki [16] [nM] | further results |
| --- | --- | --- | --- | --- | --- | --- | --- | --- |
| O=c1c(Cc2cccc(Cl)c2)c(C2CC2)[nH]c2ncnn12 |  |  |  |  |  |  |  | IC50 [1]: 16 nM |
| CC(C)c1[nH]c2nc(N)nn2c(=O)c1Cc1ccc(Cl)c(Br)c1 | 6.2 | 9.0 | 6.0 | 135 | 148 | 8.9 |  | EC50 [11]: 5.0 nM; EC50 [12]: 30 nM; EC50 [13]: 12 nM; EC50 [14]: 32 nM; EC50 [15]: 13 nM |
| Nc1nc2[nH]c(-c3ccccc3)c(Cc3cccc(Cl)c3)c(=O)n2n1 |  |  |  |  |  |  | 22.9 |  |

Now from value to compound, other results behind:

| EC50 [2] [nM] | EC50 [3] [nM] | EC50 [5] [nM] | EC50 [6] [nM] | EC50 [9] [nM] | EC50 [10] [nM] | Ki [16] [nM] | Compound | further results |
| --- | --- | --- | --- | --- | --- | --- | --- | --- |
| 4.5 | 8.0 | 5.0 | 13 | 13 | 7.2 |  | CC(C)c1[nH]c2nc(N)nn2c(=O)c1Cc1cccc(Cl)c1Cl | EC50 [4]: 25 nM; EC50 [7]: 9.0 nM; EC50 [8]: 54 nM |
|  |  |  |  |  |  | 2.95 | Nc1nc2[nH]c(C3CC3)c(Cc3cccc(F)c3)c(=O)n2n1 |  |
|  |  |  |  |  |  | 0.447 | Nc1nc2[nH]c(C3CC3)c(Cc3ccc(Cl)c(Cl)c3)c(=O)n2n1 |  |
